What was measured:
[1] = test system: subcutaneous MV4;11 xenografts; experiment: In vivo efficacy study, MV4;11 xenograft tumor volume; design: species or system SCID/bg mice; conditions: 30 mg/kg/day osmotic mini-pump for 14 days, compared to vehicle
Method: The efficacy of the compound of Example 7 was further examined by monitoring tumor volume during treatment with the compound of Example 7. Subcutaneous MV4;11 xenografts were implanted in SCID/bg mice and allowed to grow to 200 mm^3. […] Tumors were measured at the indicated time points (i.e., from 20 days to 55 days post-inoculation of the mice with the MV4;11 cells) and tumor growth was plotted as a function of time (FIG. 9).

[2] = Cytotoxicity, CellTiter Glo; type: cell-based; conditions: human, MV4;11 cells, 5-day proliferation
[3] = test system: HT1080 fibrosarcoma cells; experiment: Cell viability of HT1080 fibrosarcoma cells; type: cell-based; conditions: 48 h, 0-10,000 nM
MV4;11 cells [4] = experiment: Combination of G9a inhibitor and ATRA on MV4;11 proliferation (CellTiter Glo); type: cell-based, human; conditions: 0, 300 nM or 3 μM Example 7 with 0-100 nM ATRA, 5 days
Method: Cellular proliferation was determined by CellTiter Glo assay.

[5] = Cytotoxicity, CellTiter Glo; type: cell-based; conditions: human, KMS11 cells, 5-day proliferation
[6] = Cytotoxicity, CellTiter Glo; type: cell-based; conditions: human, G-401 cells, 7-day proliferation, neural crest derived lines
[7] = Cytotoxicity, CellTiter Glo; type: cell-based; conditions: human, K562 cells, 5-day proliferation
[8] = Cytotoxicity, CellTiter Glo; type: cell-based; conditions: human, SKBR3 cells, 5-day proliferation
[9] = Cytotoxicity, CellTiter Glo; type: cell-based; conditions: human, Calu6 cells, 5-day proliferation
MV4;11 cells [10] = experiment: Differentiation, proliferation, viability and cell cycle of MV4;11 cells, 14 days; type: cell-based, human
From the text: MV4;11 cells are a human acute myelocytic leukemia (AML) cell line derived from a human with leukemia.

[11] = Cytotoxicity, CellTiter Glo; type: cell-based; conditions: human, LN229 cells, 5-day proliferation
[12] = Cytotoxicity, CellTiter Glo; type: cell-based; conditions: human, KMS12 cells, 5-day proliferation
H3K9me2 = experiment: PK/PD study, reduction in H3K9me2 in MV4;11 xenograft; type: in vivo, SCID/bg mice; conditions: for reduction in H3K9me2: 30 mg/kg/day osmotic mini-pump, relative to vehicle
From the text: Specifically, subcutaneous MV4;11 xenografts were implanted in SCID/bg mice and allowed to grow to 200 mm^3. […] In particular, by day 14, dimethylation of lysine 9 of histone H3 in the tumor tissue was reduced by 46 percent as compared to the vehicle.

[13] = Cytotoxicity, CellTiter Glo; type: cell-based; conditions: human, 22RV1 cells, 5-day proliferation

What does the source list for `COc1cc2c(cc1OCCCN1CCCC1)N=C(N)C21CCC1` [Example 7, 5′-methoxy-6′-(3-(pyrrolidin-1-yl)propoxy)spiro[cyclobutane-1,3′-indol]-2′-amine]?
tumor growth (tumor volume) [1]: growth inhibition of the tumors; IC50 at 5 day [2]: > 10 µM; cytotoxicity compared with UNC0638 [3]: reduced cytotoxicity; MV4;11 proliferation, combination with ATRA (MV4;11 cells [4]): additive effects on MV4;11 proliferation; IC50 at 5 day [5]: > 10 µM; IC50 at 7 day [6]: > 10 µM; IC50 at 5 day [7]: > 10 µM; IC50 at 5 day [8]: > 10 µM; IC50 at 5 day [9]: > 10 µM; MV4;11 cells no longer proliferating (CellTiter Glo) (MV4;11 cells [10]; 3 μM): about 100%; viability at 3 µM (MV4;11 cells [10]; Homo sapiens, MV4-11, 336 h, 3 μM, read-out: viable MV4;11 cells (trypan blue exclusion)): ~20%; cell cycle analysis (PI staining) (MV4;11 cells [10]; MV4;11 cells, 0-3 μM): more cells were observed to be in the subG1/G0 phase; expression of marker CD11b by flow cytometry (differentiation) (MV4;11 cells [10]; MV4;11 cells, 0-3 μM): more cells in the population expressed the marker CD11b; cells positive for CD11b (MV4;11 cells [10]; MV4;11 cells, 3 μM): about 90%; IC50 at 5 day [11]: > 10 µM; IC50 at 5 day [12]: > 10 µM; reduction in H3K9me2 (H3K9me2; Day 2): 0%; reduction in H3K9me2 (H3K9me2; Day 7): 25%; reduction in H3K9me2 (H3K9me2; Day 14): 46%; reduction of dimethylation of lysine 9 of histone H3 in the tumor tissue (H3K9me2; day 14, compared to vehicle): 46%; IC50 at 5 day [13]: > 10 µM

— patent US9284272B2, “Inhibitors of histone methyltransferase G9a” (AbbVie Inc., priority 2014, dated 2016)
